In ChEMBL document CHEMBL1201862, “PubChem BioAssay data set” (2004):
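Grown in 96-well plates, cells were treated for 48 hours with each compound at five concentrations. Insufficient inhibition: endpoint recorded as highest concentration tested. GI50 = concentration required for 50% inhibition of growth.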 The source made the active and inactive calls. Rule as the data show it: active = GI50 up to about 1.1 µM and inactive = higher.

Assays:
Test in all cases: NCI tumour cell line growth inhibition, 48 h
MDA-MB-435 = tested on: MDA-MB-435
COLO 205 = tested on: COLO 205
CCRF-CEM = tested on: CCRF-CEM
DU-145 = tested on: DU-145
U-251 = tested on: U-251
HL-60 = tested on: HL-60
MDA-MB-231 = tested on: MDA-MB-231
Malme-3M = tested on: Malme-3M
HCT-116 = tested on: HCT-116
SW-620 = tested on: SW-620
KM12 = tested on: KM12
OVCAR-4 = tested on: OVCAR-4
UACC-62 = tested on: UACC-62
NCI-H23 = tested on: NCI-H23
ACHN = tested on: ACHN
SF-539 = tested on: SF-539
Hs-578T = tested on: Hs-578T
A549 = tested on: A549
RPMI-8226 = tested on: RPMI-8226
EKVX = tested on: EKVX

CC1OC2OC3C(OCC(O)C3O)OC(=O)[C@]34CCC(C)(C)CC3C3=CCC5[C@@]6(C)C[C@H](O)[C@H](OC7OC(CO)C(O)C(O)C7OC7OC(COC(=O)CC(C)(O)CC(=O)OC1C(OC1OC(CO)C(O)C(O)C1O)C2O)C(O)C(O)C7O)[C@@](C)(CO)C6CC[C@@]5(C)[C@]3(C)CC4 (stereo not given in full)
GI50 (MDA-MB-435): 1.91 µM (inactive)
GI50 (COLO 205): 2.23 µM (inactive)
GI50 (CCRF-CEM): 4.18 µM (inactive)
GI50 (DU-145): 2.61 µM (inactive)
GI50 (U-251): 2.9 µM (inactive)
GI50 (HL-60): 1.44 µM (inactive)
GI50 (MDA-MB-231): 7.52 µM (inactive)
GI50 (Malme-3M): 2.41 µM (inactive)
GI50 (HCT-116): 2.59 µM (inactive)
GI50 (SW-620): 0.359 µM (active)
GI50 (KM12): 2.37 µM (inactive)
GI50 (OVCAR-4): 5.16 µM (inactive)
GI50 (UACC-62): 1.64 µM (inactive)
GI50 (NCI-H23): 1.51 µM (inactive)
GI50 (ACHN): 2.72 µM (inactive)
GI50 (SF-539): 5.46 µM (inactive)
GI50 (Hs-578T): 8 µM (inactive)
GI50 (A549): 0.14 µM (active)
GI50 (RPMI-8226): 2.51 µM (inactive)

COCN1CCN=c2c1c1c3c(c4ccccc4n23)CCC1
GI50 (MDA-MB-435): > 100 µM (inactive)
GI50 (COLO 205): > 100 µM (inactive)
GI50 (CCRF-CEM): > 100 µM (inactive)
GI50 (DU-145): > 100 µM (inactive)
GI50 (EKVX): > 100 µM (inactive)
GI50 (U-251): > 100 µM (inactive)
GI50 (HL-60): > 100 µM (inactive)
GI50 (MDA-MB-231): > 100 µM (inactive)
GI50 (Malme-3M): > 100 µM (inactive)
GI50 (HCT-116): > 100 µM (inactive)
GI50 (SW-620): > 100 µM (inactive)
GI50 (KM12): > 100 µM (inactive)
GI50 (OVCAR-4): > 100 µM (inactive)
GI50 (UACC-62): > 100 µM (inactive)
GI50 (NCI-H23): > 100 µM (inactive)
GI50 (ACHN): > 100 µM (inactive)
GI50 (SF-539): > 100 µM (inactive)
GI50 (Hs-578T): > 100 µM (inactive)
GI50 (A549): > 100 µM (inactive)
GI50 (RPMI-8226): > 100 µM (inactive)

c1ccc2c(CC3NCCN3)cccc2c1
GI50 (MDA-MB-435): > 100 µM (inactive)
GI50 (COLO 205): > 100 µM (inactive)
GI50 (CCRF-CEM): > 100 µM (inactive)
GI50 (DU-145): > 100 µM (inactive)
GI50 (EKVX): > 100 µM (inactive)
GI50 (U-251): > 100 µM (inactive)
GI50 (HL-60): > 100 µM (inactive)
GI50 (MDA-MB-231): > 100 µM (inactive)
GI50 (Malme-3M): > 100 µM (inactive)
GI50 (HCT-116): > 100 µM (inactive)
GI50 (SW-620): > 100 µM (inactive)
GI50 (KM12): > 100 µM (inactive)
GI50 (OVCAR-4): > 100 µM (inactive)
GI50 (UACC-62): > 100 µM (inactive)
GI50 (NCI-H23): > 100 µM (inactive)
GI50 (ACHN): > 100 µM (inactive)
GI50 (SF-539): > 100 µM (inactive)
GI50 (Hs-578T): > 100 µM (inactive)
GI50 (A549): > 100 µM (inactive)
GI50 (RPMI-8226): > 100 µM (inactive)

CC(=O)N(CCCCNC(=O)C(F)(F)F)CCCNC(=O)C(F)(F)F
GI50 (MDA-MB-435): > 100 µM (inactive)
GI50 (COLO 205): > 100 µM (inactive)
GI50 (CCRF-CEM): > 100 µM (inactive)
GI50 (DU-145): > 100 µM (inactive)
GI50 (EKVX): > 100 µM (inactive)
GI50 (U-251): > 100 µM (inactive)
GI50 (HL-60): > 100 µM (inactive)
GI50 (MDA-MB-231): > 100 µM (inactive)
GI50 (HCT-116): > 100 µM (inactive)
GI50 (SW-620): > 100 µM (inactive)
GI50 (KM12): > 100 µM (inactive)
GI50 (OVCAR-4): > 100 µM (inactive)
GI50 (UACC-62): > 100 µM (inactive)
GI50 (NCI-H23): > 100 µM (inactive)
GI50 (ACHN): > 100 µM (inactive)
GI50 (SF-539): > 100 µM (inactive)
GI50 (Hs-578T): > 100 µM (inactive)
GI50 (A549): > 100 µM (inactive)
GI50 (RPMI-8226): > 100 µM (inactive)

COc1cc2nn(-c3ccccc3)nc2c2nonc12
GI50 (MDA-MB-435): > 100 µM (inactive)
GI50 (COLO 205): > 100 µM (inactive)
GI50 (CCRF-CEM): > 100 µM (inactive)
GI50 (DU-145): > 100 µM (inactive)
GI50 (EKVX): > 100 µM (inactive)
GI50 (HL-60): > 100 µM (inactive)
GI50 (MDA-MB-231): > 100 µM (inactive)
GI50 (Malme-3M): > 100 µM (inactive)
GI50 (HCT-116): 41 µM (inactive)
GI50 (SW-620): > 100 µM (inactive)
GI50 (KM12): > 100 µM (inactive)
GI50 (OVCAR-4): 95.9 µM (inactive)
GI50 (UACC-62): > 100 µM (inactive)
GI50 (NCI-H23): > 100 µM (inactive)
GI50 (ACHN): > 100 µM (inactive)
GI50 (SF-539): 87.5 µM (inactive)
GI50 (Hs-578T): 77.3 µM (inactive)
GI50 (A549): > 100 µM (inactive)
GI50 (RPMI-8226): > 100 µM (inactive)

Nc1ncnc2c1ncn2C1OC(COP(=O)(O)CP(=O)(O)O)C(O)C1O (stereo not given)
GI50 (MDA-MB-435): > 100 µM (inactive)
GI50 (COLO 205): 94.6 µM (inactive)
GI50 (CCRF-CEM): > 100 µM (inactive)
GI50 (DU-145): > 100 µM (inactive)
GI50 (EKVX): > 100 µM (inactive)
GI50 (U-251): > 100 µM (inactive)
GI50 (HL-60): > 100 µM (inactive)
GI50 (MDA-MB-231): > 10 µM (inactive)
GI50 (Malme-3M): > 100 µM (inactive)
GI50 (HCT-116): > 100 µM (inactive)
GI50 (SW-620): > 100 µM (inactive)
GI50 (KM12): > 100 µM (inactive)
GI50 (UACC-62): > 100 µM (inactive)
GI50 (NCI-H23): > 100 µM (inactive)
GI50 (ACHN): > 100 µM (inactive)
GI50 (SF-539): > 100 µM (inactive)
GI50 (Hs-578T): > 100 µM (inactive)
GI50 (A549): > 100 µM (inactive)
GI50 (RPMI-8226): > 100 µM (inactive)

c1cc2c(cc1C1=NCCN1)c1cc(C3=NCCN3)ccc1n2CC1CCCCC1
GI50 (MDA-MB-435): 18 µM (inactive)
GI50 (COLO 205): 1.74 µM (inactive)
GI50 (CCRF-CEM): 11.5 µM (inactive)
GI50 (DU-145): 18.1 µM (inactive)
GI50 (EKVX): 14.1 µM (inactive)
GI50 (U-251): 6.58 µM (inactive)
GI50 (HL-60): 14.3 µM (inactive)
GI50 (MDA-MB-231): 16.6 µM (inactive)
GI50 (Malme-3M): 8.11 µM (inactive)
GI50 (HCT-116): 12.9 µM (inactive)
GI50 (SW-620): 20.4 µM (inactive)
GI50 (KM12): 8.73 µM (inactive)
GI50 (OVCAR-4): 22.5 µM (inactive)
GI50 (NCI-H23): 17.1 µM (inactive)
GI50 (ACHN): > 100 µM (inactive)
GI50 (SF-539): 3.65 µM (inactive)
GI50 (Hs-578T): 6.19 µM (inactive)
GI50 (A549): 19.1 µM (inactive)
GI50 (RPMI-8226): 22.7 µM (inactive)
